The values that follow come from US8980899B2, “Methods of inhibiting Ire1” (The Regents of the University of California, priority 2009, dated 2015).

By Ki is commonly meant the dissociation constant of the complex between target and ligand, obtained from inhibition or displacement.

Assay [1] has as its system Ire1 (XBP-1 YFP reporter in IMR90 cells). Nature of the assay: Cell-based IRE1 inhibition assay with human fibroblasts (IMR90), XBP-1 YFP reporter. The following applies: compound 2 uM, 8 hrs. The protocol: FIG. 6 depicts histogram results of cell-based Ire1 inhibition assay employing IMR90 human diploid fibroblastic cell line. […] Induction of XBP-1 YFP reporter was assayed by fluorescence microscopy. See Example 6. Test compounds (left to right): DMSO; Tg; bortezomib; MG132; Irestatin; AD71c; AD73c; AD58; AD59. Ordinate: relative fluorescence (proportional to Ire1 activity.)
A cell-based assay of Ire1 inhibition was conducted on human diploid fibroblastic cells (IMR90) expressing an XBP-1 YFP (yellow fluorescent protein) reporter. The effect of test compound or control on UPR induction was assayed by fluorescence microscopy to measure the fluorescence of YFP expressed in a Ire1-dependent manner. The XBP1-YFP reporter only produces YFP after a frameshift produced by splicing of its intron by activated IRE1. As known in the art, higher fluorescence intensity means higher Ire1 and UPR activity. Conversely, lower fluorescence intensity means inhibitions of Ire1 and UPR.
IMR90 stable retroviral transductants expressing an XBP-1 YTP reporter were plated in a 96 well clear bottom plate and allowed to recover overnight (80% confluency). […] Induction of the XBP1-YFP reported was assayed by fluorescence microscopy (GE Healthcare IN Cell Analyzer 2000). The number of YFP cells and the total number of cells, as judged by nuclear staining (Hoechst) were counted in each well. […]

In a further assay the target is T1, yIre1 (Saccharomyces cerevisiae, UniProt P32361).
T1 sequence (P32361 19-1115): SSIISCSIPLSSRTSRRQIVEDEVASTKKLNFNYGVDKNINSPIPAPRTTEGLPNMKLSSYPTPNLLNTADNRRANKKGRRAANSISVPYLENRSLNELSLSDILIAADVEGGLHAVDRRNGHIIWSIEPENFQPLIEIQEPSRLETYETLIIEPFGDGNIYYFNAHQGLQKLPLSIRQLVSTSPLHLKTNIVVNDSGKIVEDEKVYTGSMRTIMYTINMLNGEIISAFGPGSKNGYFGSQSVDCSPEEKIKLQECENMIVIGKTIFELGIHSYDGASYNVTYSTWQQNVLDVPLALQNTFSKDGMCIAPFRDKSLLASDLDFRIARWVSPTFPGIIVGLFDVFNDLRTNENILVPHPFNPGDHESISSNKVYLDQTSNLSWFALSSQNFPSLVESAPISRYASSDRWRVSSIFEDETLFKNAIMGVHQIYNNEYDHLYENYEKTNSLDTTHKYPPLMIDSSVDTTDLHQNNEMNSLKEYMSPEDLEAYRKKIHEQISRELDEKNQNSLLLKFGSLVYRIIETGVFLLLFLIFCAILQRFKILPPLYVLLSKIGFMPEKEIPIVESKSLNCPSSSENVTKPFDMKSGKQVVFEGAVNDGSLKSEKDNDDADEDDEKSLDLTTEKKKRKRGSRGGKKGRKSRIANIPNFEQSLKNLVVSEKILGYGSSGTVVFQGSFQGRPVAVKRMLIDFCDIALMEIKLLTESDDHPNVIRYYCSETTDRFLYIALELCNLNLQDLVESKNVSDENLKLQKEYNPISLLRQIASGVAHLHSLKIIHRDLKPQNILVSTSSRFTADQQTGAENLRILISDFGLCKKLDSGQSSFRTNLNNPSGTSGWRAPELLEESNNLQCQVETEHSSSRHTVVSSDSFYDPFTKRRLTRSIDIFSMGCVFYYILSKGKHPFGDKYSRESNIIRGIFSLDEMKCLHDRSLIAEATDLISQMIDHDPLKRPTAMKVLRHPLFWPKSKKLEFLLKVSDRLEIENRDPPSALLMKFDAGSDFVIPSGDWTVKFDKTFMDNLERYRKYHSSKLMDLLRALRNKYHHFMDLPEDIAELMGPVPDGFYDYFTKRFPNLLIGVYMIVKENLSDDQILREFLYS
The assay is described as follows: RNase cleavage assay (yIre1 activation). To be noted: yIre1 RNA cleavage, 30° C., 2 mM ADP; Control (no inhibitor) 0.000504. In kind it is biochemical, yeast. Here is the method: RNA cleavage reactions were conducted at 30° C. in buffer containing 20 mM HEPES (pH 7.5), 70 mM NaCl, 2 mM ADP (pH 7.0), 2 mM Mg(OAc)2, 5 mM DTT, 5% glycerol, less than 1 nM ^32p-labeled RNA substrate, and 3 nM-[…] Ire1. Reaction solutions and buffers were designed using Biochem Lab Solutions 3.5. Reactions were prepared such that 1 μl of RNA was added to 9 μl of pre-warmed reaction mixture containing all components except RNA. Typically, 3-10 minute time courses were collected starting from 5 seconds for the first time point. At time intervals, 1 μl of solution was withdrawn from each reaction and mixed with 6 μl stop solution containing 10 M urea, 0.1% SDS, 0.1 mM EDTA, 0.05% xylene cyanol, and 0.05% bromophenol blue. The samples were separated by a denaturing 10% PAGE and exposed on a phosphor storage screen. The screens were scanned on a Storm or a Typhoon instrument and quantified using ImageQuant 5.0 or GelQuant.NET 1.4 programs. The data were plotted and fit in SigmaPlot 6.0.

A further assay concerns the target hIre1 (Homo sapiens, UniProt O75460). Nature of the assay: Titrations of Ire1 inhibitors to measure Ki using 1 μM hIre1. Format: biochemical. To be noted: 1 μM hIre1, 5′-32p-HP21, 30° C. Here is the method:
Recombinant human Ire1-alpha (1 μM f/c) was mixed with reaction buffer, inhibitor solution in DMSO, and ^32P-labeled RNA substrate having sequence 5′-UGCACCUCUGCAGCAGGUGCA (SEQ ID NO:1). Reactions were conducted at 30° C. and initiated by adding the RNA to reaction pre-mix containing all the components minus the RNA. The final reaction contained: 20 mM HEPES pH 7, 70 mM NaCl, 2 mM MgCl2, 5% glycerol, 4 mM DTT, 10% DMSO, 1 μM Ire1 and <1 nM 32P-labeled RNA. (The reaction mixture may be modified by using different components or concentrations, different RNA substrate, or different Ire1 protein construct.)
At time intervals (0 seconds, ˜10 seconds, ˜30 seconds, and ˜3 minutes), 1 μl aliquots of reaction mixture were taken and quenched in 10 M Urea, 0.1% SDS. Samples were analyzed by denaturing polyacrylamide gel electrophoresis and quantified using Typhoon phosphorImager.
Inhibition was measured by the extent of RNA cleavage slowdown in the presence of inhibitor (0.3-100 μM) compared to reaction containing no inhibitors.

In assay [2] the target is Recombinant human Ire1-alpha (Homo sapiens, UniProt O75460). Nature of the assay: In vitro inhibition assay, cleavage of 32P-stem-loop RNA by human Ire1. Format: biochemical. To be noted: in vitro cleavage of 32P-stem-loop RNA by human Ire1, AD series; Control (no inhibitor) 8.8310e−3. The protocol: Recombinant human […]) was mixed with reaction buffer, inhibitor solution in DMSO, and ^32P-labeled RNA substrate having sequence 5'-[…] NO:1). Reactions were conducted at 30° C. and initiated by adding the RNA to reaction pre-mix containing all the components minus the RNA. […] (The reaction mixture may be modified by using different components or concentrations, different RNA substrate, or different Ire1 protein construct.) At time intervals (0 seconds, 10 seconds, 30 seconds, and 3 minutes), 1 μl aliquots of reaction mixture were taken and quenched in 10 M Urea, 0.1% SDS. Samples were analyzed by denaturing polyacrylamide gel electrophoresis and quantified using Typhoon phosphorImager. […] Reactions with Irestatin and exemplary compounds were conducted analogously. Irestatin was a gift obtained from the SPECS screen available as 5 mM solution in DMSO at UCSF small molecule discovery center.
Sequence of Recombinant human Ire1-alpha (O75460 19-977): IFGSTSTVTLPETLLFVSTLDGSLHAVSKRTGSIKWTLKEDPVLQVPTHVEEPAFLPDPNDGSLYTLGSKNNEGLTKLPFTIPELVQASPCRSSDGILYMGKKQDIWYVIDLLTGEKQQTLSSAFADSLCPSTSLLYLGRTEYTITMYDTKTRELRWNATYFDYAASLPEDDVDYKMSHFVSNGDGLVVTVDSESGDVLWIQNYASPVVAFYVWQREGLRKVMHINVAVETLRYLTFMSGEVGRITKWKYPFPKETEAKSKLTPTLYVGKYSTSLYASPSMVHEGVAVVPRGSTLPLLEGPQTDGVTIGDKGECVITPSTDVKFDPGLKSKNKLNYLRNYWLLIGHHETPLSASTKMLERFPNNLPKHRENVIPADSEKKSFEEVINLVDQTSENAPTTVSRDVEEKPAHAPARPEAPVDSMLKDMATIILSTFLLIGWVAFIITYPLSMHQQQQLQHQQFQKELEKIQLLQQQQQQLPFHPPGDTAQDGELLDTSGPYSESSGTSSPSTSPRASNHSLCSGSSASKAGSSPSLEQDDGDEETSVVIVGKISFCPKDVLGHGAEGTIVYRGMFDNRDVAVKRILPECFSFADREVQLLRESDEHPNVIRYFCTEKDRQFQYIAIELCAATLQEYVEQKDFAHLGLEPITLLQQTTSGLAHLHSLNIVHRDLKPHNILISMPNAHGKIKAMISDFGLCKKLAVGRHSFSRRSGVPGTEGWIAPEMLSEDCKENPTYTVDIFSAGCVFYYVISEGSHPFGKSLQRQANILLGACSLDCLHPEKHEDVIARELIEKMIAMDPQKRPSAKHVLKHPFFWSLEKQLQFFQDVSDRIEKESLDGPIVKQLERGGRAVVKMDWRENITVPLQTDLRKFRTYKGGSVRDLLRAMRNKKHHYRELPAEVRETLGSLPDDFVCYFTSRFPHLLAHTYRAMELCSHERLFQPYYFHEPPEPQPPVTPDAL

Assay [3] relates to Ire1 (XBP-1 luciferase reporter in MEFS). Nature of the assay: Cell-based IRE1 inhibition assay with mouse embryonic fibroblasts, XBP-1 luciferase reporter. The following applies: compound 5 uM, 8 hrs. Here is the method: FIG. 5 depicts histogram results of cell-based Ire1 inhibition assay in mouse embryonic fibroblasts (MEFS). Primary MEFS isolated from a transgenic mouse expressing an XBP1 luciferase reporter were incubated with either thapsigargin (Tg) or tunicamycin (Tm) in the absence or presence of test compound or control. See Example 5. Treatment order in histogram (left to right): no compound, AD73c at 5 uM, mitoxan (10 uM). Incubation conditions (left to right): DMSO, Tg (600 nM), Tm (2.6 ug/mL). Legend: RL: relative luminosity (arbitrary units); DMSO (no fill); Tg (diagonal stripe); Mitoxan (diamond fill).
A cell-based assay of Ire1 inhibition was conducted on mouse embryonic fibroblasts (MEFS) isolated from a transgenic mouse expressing an XBP-1 luciferase reporter (Riken Research, Japan). The XBP-1 luciferase reporter produces a frameshift and production of luciferase only after splicing of the intron by activated IRE1. […]
Primary MEFs expressing an XBP1 luciferase reporter were plated in a 96 well white plate and allowed to recover overnight (80% confluency). […] Luciferase activity was measured by the additional of 50 uL of One-Glo™ Luciferase Assay System (Promega), and the relative luminescence was quantitated using a luminometer (Analyst).
As depicted in the histogram of FIG. 5, the luminescence of luciferase expressed in Ire1-dependent assay was measured to assess Ire1 and UPR activity. […]
For orientation: A reporter such as luciferase makes a cellular process visible.

Sequence of hIre1 (O75460 19-977): as above

`CC(C)n1nc(-c2ccc(NC(=O)Nc3ccccc3)cc2)c2c(N)ncnc21` [AD58]: the “inhibition of UPR (XBP-1 YFP reporter) induced by Tg” value in assay [1] is listed as “inhibit UPR”.

For `Cn1nc(-c2ccc(NC(=O)Nc3cccc(C(F)(F)F)c3)cc2)c2c(N)ncnc21` [AD59, 1-(4-(4-amino-1-methyl-1H-pyrazolo[3,4-d]pyrimidin-3-yl)phenyl)-3-(3-(trifluoromethyl)phenyl)urea], the Ire1 activity at yIre1 is listed as 0.0001; in assay [2], 3.0550e−3. In assay [1], the “inhibition of UPR (XBP-1 YFP reporter) induced by Tg” value is recorded as “even more strongly”. For the same compound, the Ki on hIre1 was roughly 1 µM.

Consider `Nc1ncnc2c1c(-c1ccc(NC(=O)Nc3cccc(C(F)(F)F)c3)cc1)nn2[C@@H]1CCN(C(=O)Nc2cccc(C(F)(F)F)c2)C1` [AD73c], for which the “inhibition of XBP1 luciferase induction by thapsigargin (Tg)” value in assay [3] (Tg 600 nM) is recorded as “strongly inhibit”. The “inhibition of XBP1 luciferase induction by tunicamycin (Tm)” value in assay [3] (Tm 2.5 ug/mL) is reported as “strongly inhibit”. In addition, the rate suppression at hIre1 came to 100 fold. The Ire1 activity in assay [2] was 2.9310e−4.
